Results taken from patent US20040157793A1, “Modified nucleosides as antiviral agents” (priority 2002, published 2004).
Like-named read-outs stand apart in the source and are kept apart here.

Experiments:
[1] = test system: HBV (wild-type virus: rtM204) in HepAD38 cells; test: Suppression of HBV production in HepAD38 cells, viral DNA in supernatant by Q-PCR; format: cell-based; conditions: HepAD38 cells, 5-day incubation
Text: The HepAD38 (wild-type virus: rtM204) and HepAD79 (3TC-resistant virus: rtV204) (Stuyver L. J. et al. 2001, Hepatol., 33:751-757) cell lines replicate HBV under conditions that can be regulated with tetracycline (King R. W. et al. 2000, Methods in Molecular Medicine, Vol 24: Antiviral Methods and Protocols, 43-50 (eds: D. Kinchington & R. F. Schinazi), Humana Press Inc, Totowa, N.J.); Ladner, et al. 1997, Antimicrob. Agents Chemother., 41:1715-1720; Ladner S. K., et al. 1998a. Antivir. Chem. Chemother., 9:65-72; Ladner S. K., et al. 1998b. Antimicrob. Agents Chemother., 42:2128-31). In the presence of this drug, the cell supernatant is virtually free of viral DNA, but upon the removal of tetracycline from the culture medium, these cells secrete virus-like particle into the supernatant.
(§1) HepAD38 and HepAD79 cells were seeded at 5×10^4 cells/well in a 96-well plate in seeding medium (DMEM/F12+10% FBS, 50 μg/ml penicillin, 50 μg/ml streptomycin, 100 μg/ml kanamycin, 400 μg/ml G418, and 0.3 μg/ml tetracycline) and incubated for 2 days at 37° C. in a 5% CO2, humidified atmosphere. The seeding media was removed, and cells were washed 3 times with PBS. Cells were then incubated with 200 μL assay medium (DMEM/F12+10% FBS+P/S/K) containing either (i) no compound, (ii) test compound, or (iii) control drugs at 10 μM. After an additional 5-day (HepAD38) or 13-day incubation (HepAD79, with renewal of the culture media at day 7), the cell supernatant was collected and stored at −70° C. until HBV DNA was quantified.
HBV DNA was extracted from supernatant using QiaAmp DNA blood Mini kit (Qiagen) and nucleic acids eluted in 200 μl Viral DNA was detected by quantitative PCR (Q-PCR). The TaqMan probe and primers were designed using the Primer Express software (Applied Biosystems) and cover highly conserved sequences complementary to the DNA sequences present in HBsAg. A total of 5 μl DNA was amplified using reagents and conditions as described by the manufacturer (Applied Biosystems). […]

[2] = test system: HBV (3TC-resistant virus: rtV204) in HepAD79 cells; test: microbe, parasite or virus in culture; format: cell-based
Experimental: as §1
HBV DNA was extracted from supernatant using QiaAmp DNA blood Mini kit (Qiagen) and nucleic acids eluted in 200 μl Viral DNA was detected by quantitative PCR (Q-PCR). The TaqMan probe and primers were designed using the Primer Express software (Applied Biosystems) and cover highly conserved sequences complementary to the DNA sequences present in HBsAg. A total of 5 μl DNA was amplified using reagents and conditions as described by the manufacturer (Applied Biosystems).
Subsequently, the time course of viral induction in HepAD79 cells over a 13-day incubation period was investigated.
Therefore, the DNA extracted from the cell supernatant was also amplified by Q-PCR for the presence of cellular DNA (the rRNA gene).

M522V virus (rtV204 HBV) = conditions: Ono S. K. et al.; cited from earlier work
HepG2 cells = test: Cell growth of HepG2 cells during 14-day treatment; format: cell-based, human; conditions: HepG2, up to 100 μM, 14 days
Experimental: In addition, these compounds were also tested in the HepG2 cell line (14-day treatment, 100 μM) for their ability to reduce mitochondrial DNA levels (using a newly designed normalized Q-PCR protocol as described in Stuyver, L. J., et al. 2002, Antimicrob. Agents Chemother., 46:3854-3860) or lactic acid production.

[3] = test system: HepG2 cells (mitochondrial COXII DNA); conditions: for Average ΔCt ± s.d. MitCoxII / Average ΔCt ± s.d. rDNA / Average ΔΔCt ± s.d. MitCOXII-rDNA / Fold difference in COXII DNA levels normalized for rDNA (range) relative to control: HepG2, 14-day treatment

With `Nc1nc(=O)n([C@@H]2C=C[C@H](CO)O2)cc1F` [L-d4FC] the “HepAD38 log10 inhibition at 10 μM” value ([1]; 10 μM, HBV DNA in supernatant) was 2.56 ± 0.44 log10, the EC90 ([1]; concentration reducing viral load by 90%, unit printed in text only, read-out: HepAD38 EC90) was 50 ± 20 nM and the “HepAD79 log10 inhibition at 10 μM” value ([2]; HepAD79 cells, 10 μM, 13-day incubation, HBV DNA in supernatant) was 1.64 ± 0.37 log10. For the same molecule, the EC90 ([2]; HepAD79 cells, 13-day incubation, read-out: HepAD79 EC90) was 880 nM, the “FI EC90 AD79/EC90 AD38” value ([2]; fold increase, EC90 HepAD79 over EC90 HepAD38) was 17.6 and the EC50 (M522V virus (rtV204 HBV)) was 1800 nM. The “effect on cell growth (in words)” value (HepG2 cells) was “reduced the cell growth significantly”, the “Average ΔCt ± s.d. MitCoxII” value ([3]; 10 μM) was 2.72 ± 0.27 and the “Average ΔCt ± s.d. rDNA” value ([3]; 10 μM) was 3.89 ± 0.23. The “Average ΔΔCt ± s.d. MitCOXII-rDNA” value ([3]; 10 μM) was −1.17 ± 0.47, the “Fold difference in COXII DNA levels normalized for rDNA (range) relative to control” value ([3]; 10 μM) was 2.25 (1.62-3.12) and the “Average ΔCt ± s.d. MitCoxII” value ([3]; 100 μM) was 6.52 ± 0.14. The “Average ΔCt ± s.d. rDNA” value ([3]; 100 μM) was 8.76 ± 0.47, the “Average ΔΔCt ± s.d. MitCOXII-rDNA” value ([3]; 100 μM) was 2.24 ± 0.58 and the “Fold difference in COXII DNA levels normalized for rDNA (range) relative to control” value ([3]; 100 μM) was 4.72 (3.16-7.04). For the same molecule, the “effect on mitochondrial DNA levels (in words)” value ([3]; HepG2, up to 100 μM, 14 days) was “did not specifically affect the mitochondrial DNA levels”.
